Several values for one entry are separate records, joined by “and”; a condition that tells them apart may be missing. Equal entries are not always repeated. Entries after “also recorded” stand apart in the source; their conditions may differ.
Legend:
[1] = Blood-to-plasma ratio, human; type: in vitro ADME
From the text: (§1) The binding to plasma protein of I-57 in vitro was moderate in all species, with an observed difference between rodents (73% in mouse, 76% in rat) and non-rodents (52% in dog and monkey, 54% in human). Blood-to-plasma ratios were in the range of 0.7-1.8 (human 1.1-1.3). […] Based on results with non-radiolabeled I-57 in the dog, a significant amount of unchanged I-57 was renally eliminated (˜20% of dose).

CYP2B6 = CYP2B6 (Homo sapiens, UniProt P20813); test: CYP inhibition: CYP2B6; type: in vitro ADME; details: I-57 concentrations of up to 100 μM
CYP1A2 = CYP1A2 (Homo sapiens, UniProt P05177); test: Time-dependent CYP inhibition: CYP1A2; type: in vitro ADME; details: I-57 concentrations of up to 100 μM
IKZF2 [2] = target: T1, IKZF2 (Homo sapiens, UniProt Q96SW2+Q9UKS7); test: Multi-dose PK/PD study in human PBMC adoptive transfer mouse model harboring MDA-MB231 xenografts: IKZF2 expression in human CD4+FOXP3+ regulatory T cells (FIG. 6, 7); type: in vivo; set-up: endogenous in cells; host or cells: primary human PBMCs; details: 14 daily oral doses of 0.3, 1, 3 and 30 mg/kg, hPBMC AdT mouse model
Protocol: FIG. 6 is a pictorial representation of the multi-dose PK/PD study design in the human PBMC adoptive transfer mouse model harboring MDA-MB231 xenografts. Fourteen consecutive daily doses of Compound I-57 was administered at 0.3 mg/kg, 1 mg/kg, 3 mg/kg or 30 mg/kg.
FIG. 7 is a graph showing the change in the IKZF2 expression in human CD4+FOXP3+ regulatory T cells isolated from MDA-MB231 tumor xenografts (Tumor) or blood (Periphery) following 14 daily oral doses of 0.3, 1, 3 and 30 mg/kg Compound I-57 administered to the hPBMC AdT model.

CYP2A6 = CYP2A6 (Homo sapiens, UniProt P11509); test: CYP inhibition: CYP2A6; type: in vitro ADME; details: I-57 concentrations of up to 100 μM
CYP2C19 [3] = target: T2, CYP2C19 (Homo sapiens, UniProt P33261); test: Time-dependent CYP inhibition: CYP2C19; type: in vitro ADME; details: I-57 concentrations of up to 100 μM
IKZF2 [4] = target: T1, IKZF2; test: IKZF2 degradation in primary human PBMCs; type: cell-based; set-up: endogenous in cells; host or cells: primary human PBMCs
From the text: Although the specific transcriptional targets of IKZF2 remain to be defined, IKZF2 binds to and represses transcription from the IL-2 promoter region (Baine 2013). […] Finally, an in vitro assay recapitulating hallmarks of T cell dysfunction/exhaustion, by sequential TCR stimulation of isolated primary human T cells, was used to test the hypothesis that […] would rescue the exhausted phenotype and enhance Teff cell activity. […] In addition to IKZF1, other known cereblon substrates including translation termination factor G1 to S phase transition 1 (GSPT1) are not degraded by I-57 (FIG. 1).
I-57 mediated degradation of IKZF2 was assessed in primary PBMCs obtained from rabbit, dog, pig, cynomolgus monkey, and human, and in primary splenocytes of mouse and rat. […] Species-specificity due to species specific alteration CRBN primary structure have previously been described with other compounds known to interact with the CRBN ubiquitin ligase complex to elicit protein specific degradation (Krönke et al, 2015).

CYP3A4 = CYP3A4 (Homo sapiens, UniProt P08684); test: Enzyme phenotyping with human recombinant CYPs; type: in vitro ADME; details: human recombinant CYPs in vitro; preliminary assessment
Protocol: (§2) In vivo in the dog, very minor amounts of the N-dealkylation product and products derived from hydrolysis of the glutarimide moiety were detected in plasma. While the contribution of CYP-mediated oxidative metabolism to systemic clearance is unknown, a preliminary assessment of the enzymes involved was conducted using human recombinant CYPs in vitro.

hERG = hERG (Homo sapiens, UniProt Q12809); test: In vitro hERG inhibition; type: biochemical
Protocol: The risk of possible QTc interval prolongation at the starting dose is therefore considered low. QT prolongation may become clinically significant during escalation but are not anticipated to be dose limiting until doses at or above 640 mg. Monitoring and other measures to mitigate potential risk of arrhythmia is addressed in Example 3 below.

FIZ1 = target: T3, FIZ1 (Homo sapiens, UniProt Q96SL8); test: Whole cell proteomic analysis in 293T cells and subsequent analyses: FIZ1; type: cell-based
T3 construct: endogenous in cells; host or cells: 293T
Protocol: Other potential degradation targets of I-57 were evaluated in 293T cells using whole cell proteomic analysis. […] Subsequent analyses have confirmed that FIZ1 is degraded by about 50% at a 10 μM concentration of I-57 ([I-57 Investigator's Brochure]). […] FIZ1 is expressed in the neural retina where it transcriptionally represses the differentiation of photoreceptors. FIZ1 is also expressed in non-ocular tissues with unknown function.

[5] = In vivo non-clinical PK profile, all species tested; set-up: species or system mouse, rat, dog and cynomolgus monkey
Protocol: (§3) The in vivo non-clinical PK profile of I-57 was investigated in mouse, rat, dog and cynomolgus monkey using I-57 free base. […] After p.o. administration, the absorption of I-57 was rapid with peak blood concentration (Tmax) occurring between 1 and 4 hours. […] In high dose PK and toxicology studies with I-57 the exposures in mouse, rat and monkey increased with dose.

CYP2C9 = CYP2C9 (Homo sapiens, UniProt P11712); test: Time-dependent CYP inhibition: CYP2C9; type: in vitro ADME; details: I-57 concentrations of up to 100 μM
plasma protein = test: Plasma protein binding in vitro, human; type: in vitro ADME
From the text: as §1

CYP2C19 [6] = target: T2, CYP2C19; test: CYP inhibition: CYP2C19; type: in vitro ADME; details: I-57 concentrations of up to 100 μM
[7] = Blood-to-plasma ratio, across species; type: in vitro ADME
From the text: as §1

CYP2E1 = CYP2E1 (Homo sapiens, UniProt P05181); test: CYP inhibition: CYP2E1; type: in vitro ADME; details: I-57 concentrations of up to 100 μM
[8] = In vitro metabolism in liver microsomes and hepatocytes across species; type: in vitro ADME
Protocol: as §2

[9] = In vivo non-clinical PK, rat
Protocol: as §3

[10] = i.v. administration, all species tested, I-57 free base

T1 sequence (Q9UKS7 whole entry): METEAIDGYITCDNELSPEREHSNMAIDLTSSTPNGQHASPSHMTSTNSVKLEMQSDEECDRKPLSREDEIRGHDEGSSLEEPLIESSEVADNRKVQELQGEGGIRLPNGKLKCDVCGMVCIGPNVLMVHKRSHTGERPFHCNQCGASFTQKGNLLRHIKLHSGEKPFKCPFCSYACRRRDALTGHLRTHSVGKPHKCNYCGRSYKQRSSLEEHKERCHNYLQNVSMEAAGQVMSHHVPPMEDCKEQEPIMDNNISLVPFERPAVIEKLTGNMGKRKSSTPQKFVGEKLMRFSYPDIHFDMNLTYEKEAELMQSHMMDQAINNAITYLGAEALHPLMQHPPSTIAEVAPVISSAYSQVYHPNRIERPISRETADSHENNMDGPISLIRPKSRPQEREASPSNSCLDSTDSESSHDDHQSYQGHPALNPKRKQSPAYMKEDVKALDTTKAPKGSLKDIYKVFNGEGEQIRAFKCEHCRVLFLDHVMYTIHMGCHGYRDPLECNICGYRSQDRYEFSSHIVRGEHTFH
T1 sequence (Q96SW2 whole entry): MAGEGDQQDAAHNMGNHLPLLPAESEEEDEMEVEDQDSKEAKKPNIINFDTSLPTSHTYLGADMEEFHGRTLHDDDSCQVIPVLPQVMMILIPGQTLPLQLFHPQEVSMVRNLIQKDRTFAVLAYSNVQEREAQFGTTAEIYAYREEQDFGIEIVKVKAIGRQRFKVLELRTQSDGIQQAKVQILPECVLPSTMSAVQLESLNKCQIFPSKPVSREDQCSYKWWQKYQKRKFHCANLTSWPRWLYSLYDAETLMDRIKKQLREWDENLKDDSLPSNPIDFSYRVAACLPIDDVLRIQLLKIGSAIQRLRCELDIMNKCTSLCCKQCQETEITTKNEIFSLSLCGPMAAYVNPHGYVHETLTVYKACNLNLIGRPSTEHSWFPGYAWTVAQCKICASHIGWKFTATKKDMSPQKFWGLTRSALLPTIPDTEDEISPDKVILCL
T1 sequence (Q16531 whole entry partner): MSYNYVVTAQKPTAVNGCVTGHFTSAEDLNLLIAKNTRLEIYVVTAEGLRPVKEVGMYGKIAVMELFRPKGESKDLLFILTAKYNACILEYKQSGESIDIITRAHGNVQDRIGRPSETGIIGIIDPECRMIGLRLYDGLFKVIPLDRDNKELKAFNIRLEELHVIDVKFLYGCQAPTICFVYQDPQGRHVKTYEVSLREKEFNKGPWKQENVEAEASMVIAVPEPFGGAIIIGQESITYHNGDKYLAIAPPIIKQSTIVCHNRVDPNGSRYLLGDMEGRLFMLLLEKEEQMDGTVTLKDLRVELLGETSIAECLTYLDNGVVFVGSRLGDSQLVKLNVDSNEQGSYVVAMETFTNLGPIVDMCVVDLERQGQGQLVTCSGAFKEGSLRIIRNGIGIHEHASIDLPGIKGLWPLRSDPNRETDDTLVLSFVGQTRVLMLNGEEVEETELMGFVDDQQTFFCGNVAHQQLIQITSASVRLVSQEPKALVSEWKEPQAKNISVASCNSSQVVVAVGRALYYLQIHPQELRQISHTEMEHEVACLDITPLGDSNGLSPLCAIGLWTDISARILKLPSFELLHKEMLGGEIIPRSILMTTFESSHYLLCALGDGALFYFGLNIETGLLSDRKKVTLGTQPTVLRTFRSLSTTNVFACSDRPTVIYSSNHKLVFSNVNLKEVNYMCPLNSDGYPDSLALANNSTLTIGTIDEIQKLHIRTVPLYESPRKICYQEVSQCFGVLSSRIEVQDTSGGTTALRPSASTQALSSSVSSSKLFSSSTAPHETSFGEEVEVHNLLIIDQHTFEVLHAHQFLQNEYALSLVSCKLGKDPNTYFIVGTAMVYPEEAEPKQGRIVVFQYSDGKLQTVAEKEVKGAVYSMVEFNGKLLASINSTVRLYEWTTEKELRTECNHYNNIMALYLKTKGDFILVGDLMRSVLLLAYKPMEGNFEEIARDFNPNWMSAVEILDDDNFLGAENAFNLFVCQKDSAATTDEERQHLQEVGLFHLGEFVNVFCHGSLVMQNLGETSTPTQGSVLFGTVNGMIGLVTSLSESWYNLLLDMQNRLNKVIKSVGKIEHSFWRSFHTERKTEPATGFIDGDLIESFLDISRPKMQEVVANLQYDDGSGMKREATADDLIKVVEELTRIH
T3 sequence (Q96SL8 whole entry): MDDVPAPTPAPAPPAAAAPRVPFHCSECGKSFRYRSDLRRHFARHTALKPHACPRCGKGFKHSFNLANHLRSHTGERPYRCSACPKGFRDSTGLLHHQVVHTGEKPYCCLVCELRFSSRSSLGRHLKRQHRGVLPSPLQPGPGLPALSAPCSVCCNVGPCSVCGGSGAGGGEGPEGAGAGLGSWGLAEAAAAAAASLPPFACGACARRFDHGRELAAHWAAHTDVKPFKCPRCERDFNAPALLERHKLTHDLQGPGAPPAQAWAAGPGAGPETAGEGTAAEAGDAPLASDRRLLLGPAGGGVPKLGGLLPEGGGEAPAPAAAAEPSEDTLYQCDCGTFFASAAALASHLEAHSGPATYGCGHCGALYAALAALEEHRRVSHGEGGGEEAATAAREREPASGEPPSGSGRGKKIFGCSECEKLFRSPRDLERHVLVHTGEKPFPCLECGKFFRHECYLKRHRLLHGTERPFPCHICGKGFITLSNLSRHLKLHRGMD
T2 sequence (P33261 whole entry): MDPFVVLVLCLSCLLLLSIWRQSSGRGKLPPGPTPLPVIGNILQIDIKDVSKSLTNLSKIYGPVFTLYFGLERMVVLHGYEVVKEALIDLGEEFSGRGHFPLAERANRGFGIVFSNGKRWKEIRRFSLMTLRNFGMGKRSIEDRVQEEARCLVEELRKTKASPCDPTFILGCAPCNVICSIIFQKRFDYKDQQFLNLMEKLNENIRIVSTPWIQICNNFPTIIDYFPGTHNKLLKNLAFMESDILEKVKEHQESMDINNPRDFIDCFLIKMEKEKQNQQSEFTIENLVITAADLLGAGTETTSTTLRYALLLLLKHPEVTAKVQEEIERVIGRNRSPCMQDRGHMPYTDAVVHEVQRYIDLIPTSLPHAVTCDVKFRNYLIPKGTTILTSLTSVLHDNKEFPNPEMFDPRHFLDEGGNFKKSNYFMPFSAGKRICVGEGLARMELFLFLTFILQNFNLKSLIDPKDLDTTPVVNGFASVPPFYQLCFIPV
Chain of CYP2A6 (P11509 whole entry): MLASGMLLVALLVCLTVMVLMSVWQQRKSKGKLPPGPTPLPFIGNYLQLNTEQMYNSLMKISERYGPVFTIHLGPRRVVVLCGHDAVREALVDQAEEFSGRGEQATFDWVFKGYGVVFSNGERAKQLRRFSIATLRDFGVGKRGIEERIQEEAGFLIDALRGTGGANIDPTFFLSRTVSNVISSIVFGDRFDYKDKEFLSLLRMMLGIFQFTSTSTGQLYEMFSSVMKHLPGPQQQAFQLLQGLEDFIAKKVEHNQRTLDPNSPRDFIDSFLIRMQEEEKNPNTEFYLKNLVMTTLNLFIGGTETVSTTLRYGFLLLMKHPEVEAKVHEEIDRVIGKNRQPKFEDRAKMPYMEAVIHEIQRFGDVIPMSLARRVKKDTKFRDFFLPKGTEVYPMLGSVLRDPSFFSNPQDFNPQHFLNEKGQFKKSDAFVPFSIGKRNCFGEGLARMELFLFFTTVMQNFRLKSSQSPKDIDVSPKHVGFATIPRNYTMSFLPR
Chain of CYP3A4 (P08684 whole entry): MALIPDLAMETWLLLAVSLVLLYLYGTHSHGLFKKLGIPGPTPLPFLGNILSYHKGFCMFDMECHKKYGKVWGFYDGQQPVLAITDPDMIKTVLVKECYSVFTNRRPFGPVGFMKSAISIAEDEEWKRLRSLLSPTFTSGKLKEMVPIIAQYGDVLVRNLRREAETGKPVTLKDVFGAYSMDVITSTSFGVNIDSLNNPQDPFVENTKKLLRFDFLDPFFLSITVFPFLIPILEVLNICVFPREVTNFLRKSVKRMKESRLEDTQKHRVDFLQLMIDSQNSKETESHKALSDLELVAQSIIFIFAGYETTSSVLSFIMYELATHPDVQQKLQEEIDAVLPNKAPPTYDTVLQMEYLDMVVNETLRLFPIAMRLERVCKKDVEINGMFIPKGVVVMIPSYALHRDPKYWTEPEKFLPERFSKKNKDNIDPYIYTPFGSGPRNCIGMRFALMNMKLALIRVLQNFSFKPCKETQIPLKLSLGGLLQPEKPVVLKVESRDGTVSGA
Chain of CYP2C9 (P11712 whole entry): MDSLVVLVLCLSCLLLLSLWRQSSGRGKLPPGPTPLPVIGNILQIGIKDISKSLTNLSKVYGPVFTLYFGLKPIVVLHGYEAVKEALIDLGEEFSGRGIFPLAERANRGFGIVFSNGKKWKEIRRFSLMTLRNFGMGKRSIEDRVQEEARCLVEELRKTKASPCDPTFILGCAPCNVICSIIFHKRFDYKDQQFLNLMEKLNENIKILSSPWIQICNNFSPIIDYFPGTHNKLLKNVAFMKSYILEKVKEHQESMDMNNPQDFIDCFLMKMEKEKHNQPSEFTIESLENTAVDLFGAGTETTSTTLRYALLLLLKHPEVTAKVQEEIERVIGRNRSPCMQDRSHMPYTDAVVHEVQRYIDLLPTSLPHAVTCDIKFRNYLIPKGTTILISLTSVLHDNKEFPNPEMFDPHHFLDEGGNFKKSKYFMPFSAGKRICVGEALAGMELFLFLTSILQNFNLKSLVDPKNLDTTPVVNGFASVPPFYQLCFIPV

Which results are given for `O=C1CCC(N2Cc3cc(C4CCN(Cc5ccccc5)CC4)ccc3C2=O)C(=O)N1` (stereo not shown) [Compound I-57, 3-(5-(1-benzylpiperidin-4-yl)-1-oxoisoindolin-2-yl)piperidine-2,6-dione]?
blood plasma ratio [1]: 1.1 to 1.3; inhibition of CYP2B6 (CYP2B6): very little and no inhibition; time-dependent inhibition of CYP1A2 (CYP1A2): no apparent time-dependent inhibition; IKZF2 degradation (reduction of the percentage of IKZF2 positive Tregs) (IKZF2 [2]; peripheral blood): robust dose and exposure-dependent IKZF2 degradation; IKZF2 degradation (reduction of the percentage of IKZF2 positive Tregs) (IKZF2 [2]; tumor (MDA-MB231 xenografts)): robust dose and exposure-dependent IKZF2 degradation; inhibition of CYP2A6 (CYP2A6): very little and no inhibition; time-dependent inhibition of CYP2C19 (CYP2C19 [3]): no apparent time-dependent inhibition; DC50 (IKZF2 [4]; human PBMC, read-out: AC50 for IKZF2 degradation (converted)): ~4 nM and ~4.07 nM; degradation of IKZF2 (IKZF2 [4]; primary human PBMCs in vitro): potent degradation; also recorded: Degradation was observed; CYP enzyme mediating oxidative metabolism (CYP3A4): CYP3A4 was found to primarily mediate these reactions; IC50 (hERG): 7100 nM; degradation of FIZ1 (FIZ1; 10 μM I-57, subsequent analyses): about 50%; degradation of FIZ1 (FIZ1; 293T cells, whole cell proteomic analysis): degraded; blood clearance (CL) [5, 10]: low to moderate; terminal half-life (T½) [5, 10]: moderate; volume of distribution (Vss) [5, 10]: moderate to high; Tmax ([5]; mouse, rat, dog, cynomolgus monkey, blood, po, p.o. administration, read-out: peak blood concentration (Tmax)): 1 to 4 h; time-dependent inhibition of CYP2C9 (CYP2C9): no apparent time-dependent inhibition; binding to plasma protein (plasma protein): 54%; inhibition of CYP2C19 (CYP2C19 [6]): very little and no inhibition; blood plasma ratio [7]: 0.7 to 1.8; inhibition of CYP2E1 (CYP2E1): very little and no inhibition; metabolic stability [8]: very stable and no appreciable metabolic turnover was observed; dose proportionality of AUC ([9]; between 3 mg/kg and 300 mg/kg): roughly dose proportional; bioavailability ([9]; blood, po): 90%

Reference: patent publication US20230321067A1, “DOSING REGIMEN COMPRISING 3-(1-OXOISOINDOLIN-2-YL)PIPERIDINE-2,6-DIONE DERIVATIVES” (Novartis AG, priority 2020, published 2023)
